The values below come from publication PMC13077603, “Fluorine‐18‐Labeled Nucleotide Analogs Targeting Ecto‐5'‐Nucleotidase (CD73) for Positron Emission Tomography Imaging of Solid Tumors” (Angewandte Chemie (International Ed. in English), 2026).

In series [1] the target is T1, CD73 in human breast cancer samples (Homo sapiens, UniProt P21589).
T1 construct: cryosections of breast tumor samples as well as sentinel lymph node samples were investigated; from tissue; host or cells: primary breast tumors and sentinel lymph nodes of two patients, 6 µm cryosections
T1 sequence (P21589 27-574): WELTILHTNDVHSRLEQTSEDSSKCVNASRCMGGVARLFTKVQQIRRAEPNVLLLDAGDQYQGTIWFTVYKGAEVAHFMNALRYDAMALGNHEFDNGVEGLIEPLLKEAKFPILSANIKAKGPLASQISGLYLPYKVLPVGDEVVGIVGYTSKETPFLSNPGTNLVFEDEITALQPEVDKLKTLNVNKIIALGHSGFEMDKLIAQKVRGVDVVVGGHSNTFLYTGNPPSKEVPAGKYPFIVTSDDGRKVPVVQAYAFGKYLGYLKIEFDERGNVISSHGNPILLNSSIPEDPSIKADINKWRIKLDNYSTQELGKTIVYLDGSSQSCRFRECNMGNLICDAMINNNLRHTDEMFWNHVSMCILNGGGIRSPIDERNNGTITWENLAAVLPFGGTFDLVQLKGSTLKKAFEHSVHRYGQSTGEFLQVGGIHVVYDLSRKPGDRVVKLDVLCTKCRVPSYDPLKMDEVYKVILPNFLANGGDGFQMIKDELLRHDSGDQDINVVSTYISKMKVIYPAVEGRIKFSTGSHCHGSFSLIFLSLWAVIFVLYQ
Put plainly: Autoradiography on human breast tumor and sentinel lymph node cryosections. Particulars: ∼1000‐fold excess of blocker with radiotracer. Format: binding. As to the method:
To test specific radiotracer binding to its target, we performed in situ autoradiography. [^18F]2 was applied onto cryosections of neighboring slides of tumor tissues from primary breast tumors from patient X (Figure 4A) and patient Y (Figure 4B), used for immunohistochemistry and AMPase activity determination. Sentinel LN from patient Y was incubated with [^18F]1 (Figure 4C).
FIGURE 4 Autoradiographic imaging of ^18F‐labeled CD73 tracer binding to tissue samples of breast tumors and sentinel lymph nodes. Primary breast tumor (A, B) and LN cryosections (C) were incubated with [^18F]2 or [^18F]1 in the absence (control) and in the presence of an unlabeled CD73 inhibitor, AMPCP (13) or JMS04‐14 (14), as indicated. The samples were processed for autoradiographic analysis, as described in the materials and methods section. The white dotted lines outline the tissue boundaries. (D). Structures of CD73 inhibitors applied as blockers in this study.
For the assessment of ^18F-labeled CD73 tracer binding to human tissues, cryosections of breast tumor samples as well as sentinel lymph node samples were investigated. Cryosections were thawed and pre-incubated for 15 min at room temperature in 2-[4-(2-hydroxyethyl)piperazin-1-yl]ethanesulfonic acid buffer (HEPES). […] Blocking compounds were prepared according to the molar activity of the radiolabeled tracers [^18F]MRS-4648 and [^18F]PSB-19427 aiming at a 1000-fold excess of the blocking agent. For each tissue sample, neighboring sections were incubated for 20 min at room temperature with a mixture of 50µL of the radiotracer and 50µL of the classical CD73 inhibitor AMPCP (25 nmol, in PBS), or JMS0414 (61 nmol, in HEPES), or HEPES buffer respectively. After incubation, slides were washed three times with PBS and Aqua bidest, mounted on a slide holder for the image acquisition, and covered with protection and scintillation foils. Digital autoradiography measurement of each slide was performed for 60 minutes (Micro Imager, Biospace, France). Acquired data were corrected for radioactive decay in reference to the start of the acquisition as well as the start of the incubation.

Series [2] concerns the target T2, CD73 (cell membrane preparations of MDA-MB-231 cells) (Homo sapiens, UniProt P21589).
T2 construct: endogenous in cells; host or cells: MDA-MB-231 (human triple-negative breast cancer) membrane preparation
T2 sequence (P21589 27-574): T1 sequence (P21589 27-574)
Briefly: Kinetic rate index radioligand binding assay, estimation of residence time. The source says: Besides affinity, binding kinetics play a crucial role in determining in vivo tracer performance. The clinical CD73 inhibitor Quemliclustat has been reported to display a very long residence time. We therefore determined the kinetic rate index (KRI) of selected CD73 inhibitors using a radioligand binding assay. […] These comparatively long residence times indicate slow dissociation from the target, which may contribute to the sustained tumor retention of [^18F]1 observed in vivo. Another effect that might play a role is pharmacological inhibition of CD73 by the high concentration of the CD73 inhibitor used for blocking. This will lead to a strong reduction in adenosine concentrations, for example, in blood vessels and other tissues, which may change hemodynamics and drug distribution. […]
Cell membrane preparations of MDA-MB-231 cells were performed as previously described.^[9^] A dual point competition assay (at 20 min and 90 min) using [^3H]PSB-17230 was employed for the determination of kinetic rate index (KRI) in analogy to a published procedure,^[60^] determined at 25°C. The residence times were calculated by linear correlation based on a large database of previously determined KRI values and residence times of analogs.

Series [3] deals with MDA‐MB‐231 tumor. Briefly: PET imaging in MDA-MB-231 breast cancer xenograft model. Particulars: MDA‐MB‐231 model. Format: in vivo, NSG mice. As to the method: Given the specificity of [^18F]1 and [^18F]2 and the promising in vivo biodistribution profile of [^18F]1, we established a small‐animal human breast tumor xenograft model in NSG mice subcutaneously implanted with MDA‐MB‐231 cells. […] For blocking studies, PSB‐12651 (15, Figure 6) or unlabeled 1 were used.
FIGURE 6 PET imaging data in an MDA‐MB‐231 tumor mouse model. (A). PET images, CT scans, and merged images of [^18F]2 in the MDA‐MB‐231 tumor mouse model 90 min after tracer injection. White arrows mark the tumor positions. (B). Quantitative PET analysis of [^18F]2 uptake: activity concentration of [^18F]2 in muscle and tumor tissues 90 min after tracer injection (left) and respective tumor‐to‐muscle ratio (right, n = 5 tumors). (C). PET‐CT images of [^18F]1 and [^18F]FDG in the MDA‐MB‐231 tumor mouse model, 260 min ([^18F]1), or 75 min ([^18F]FDG) after injection. […] White arrows mark the positions of tumors. (D). Quantitative PET analysis of [^18F]1 uptake: activity concentration of [^18F]1 and [^18F]FDG in muscle and tumor tissues (left) and tumor‐to‐muscle ratios (right) after 260 min. [^18F]1: n = 18 tumors, [^18F]1 plus unlabeled 1 block: n = 8 tumors, [^18F]1 plus compound 15 block: n = 6 tumors, [^18F]FDG: n = 18 tumors E. Ex vivo analysis of [^18F]1 uptake as measured by gamma counter: activity concentrations of [^18F]1 in muscle and tumor tissues after 260 min without and with blocking (left) and tumor‐to‐muscle ratios (right). [^18F]1: n = 6 tumors, [^18F]1 plus unlabeled 1 block: n = 6 tumors, [^18F]1 plus compound 15 block: n = 5 tumors.^# relative to the respective muscle, *relative to [^18F]1 without blocker, relative to the unblocked tumor; *<0.05; **<0.01, ***<0.001,^#<0.05; ^## <0.01, ^###<0.001, <0.05; <0.01, <0.001, ns: non‐significant, unpaired t‐test.
MDA-MB-231 cells were cultivated in DMEM/GlutaMAX, supplemented with 10 % fetal calf serum, 100 U/mL penicillin, and 100 µg/mL streptomycin and L-glutamine to a final concentration of 8 mmol/L. AsPC-1 cells were cultivated in RPMI, supplemented with 10 % fetal calf serum, 100 U/mL penicillin, and 100 µg/mL streptomycin and L-glutamine to a final concentration of 8 mmol/L. 5 x 10^6 MDA-MB-231 or 1x 10^6 AsPC-1 cells were injected subcutaneously into the shoulder region of 7 to 12 weeks old NSG (NOD.Cg-Prkdc^scid Il2rg^tm1Wjl/SzJ) mice (Charles River Laboratories). Two tumors were inoculated per animal, and growth was followed by digital caliper measurements (volume = ½ (length * width^2)).
Adult C57bl/6 (biodistribution study, 19.8±1.3 g) or tumor-bearing NSG mice (22.2±2.2 g) were anesthetized by isoflurane/O2, and one lateral tail vein was cannulated using a 27 G needle. A respective radiotracer (~ 390 kBq/g body weight) was injected as a bolus via the tail vein, and subsequent PET scanning was performed. A ~1000-fold excess of unlabeled JMS0414 (14 for [^18F]MRS-4648 ([^18F]2)), unlabeled PSB-19427 (1), or PSB-12651 (15) (for [^18F]PSB-19427 ([^18F]1)) was injected into a subgroup of tumor-bearing mice 10 min before radiotracer injection in the blocking studies. PET imaging studies were carried out using a submillimeter high resolution (0.7 mm full width at half-maximum) small animal scanner (32 module quadHIDAC, Oxford Positron Systems Ltd., Oxford, UK) with a uniform spatial resolution (<1 mm) over a large cylindrical field (165 mm diameter, 280 mm axial length). […]

Values joined by “and” are separate entries in the source; they are usually repeats but may differ in a detail not shown here. Equal values may be shown once. Read-outs that look alike come from different tables or passages of the source.

Take `Nc1ncnc2c1ncn2[C@@H]1O[C@H](COP(=O)(O)CP(=O)(O)O)[C@@H](O)[C@H]1O` [AMPCP, reference compound]: the “Effect of co-incubated blocker on tissue-associated radioactivity” value in series [1] is reported as “markedly reduced”. Also, the residence time in series [2] is 8.8 min.

Regarding `Cn1c(=O)n([C@@H]2O[C@H](COP(=O)(O)CP(=O)(O)O)[C@@H](O)[C@H]2O)cc/c1=N/OCc1ccccc1` [JMS04-14, reference compound], the “Effect of co-incubated blocker on tissue-associated radioactivity” value in series [1] was “markedly reduced”.

Take `O=P(O)(O)CP(=O)(O)OC[C@H]1O[C@@H](n2cnc3c(NCc4ccccc4)nc(Cl)nc32)[C@H](O)[C@@H]1O` [PSB-12651, reference compound]: the “Effect of blocker pre-treatment on tumor-to-muscle ratio of [18F]1” value in series [3] (~1000-fold excess injected 10 min before tracer) is recorded as “markedly reduced”. For the same compound, in series [2] (estimated from kinetic rate index, [3H]PSB-17230, 25 °C, read-out: Residence time), the residence time was 31 min.

Take `O=C[C@H]([18F])[C@@H](O)[C@H](O)[C@H](O)CO` [[^18F]FDG, 2‐deoxy‐2‐[^18F]fluoro‐D‐glucose, reference compound]: the Tumor-to-muscle ratio in series [3] ([18F]FDG PET, 75 min after injection) is 2.04 ± 1.0 and 2.04.
